Test results reported in ChEMBL document CHEMBL6078632, “Discovery of Janus Kinase and Histone Deacetylase Dual Inhibitors as a New Strategy to Treat Psoriasis” (J Med Chem, 2024).
Active and inactive are the calls of the source. No cut-off for these calls is given here.

How the values were obtained:
[1] = target: T1, Tyrosine-protein kinase JAK2 (Homo sapiens, UniProt O60674); assay: Inhibition of JAK2 (unknown origin) using FAM-labelled peptide and ATP at 100 nM measured after 25 mins incubation relative to control
HaCaT = assay: cells; conditions: Homo sapiens, 48 h
Description: Antiproliferative activity against human HaCAT cells assessed as inhibition of TNFalpha-induced proliferation measured after 48 hrs by CCK-8 assay

Histone deacetylase 1 = Histone deacetylase 1 (Homo sapiens, UniProt Q13547); assay: Inhibition of recombinant human HDAC1 using (Ac-Leu-Gly-Lys(Ac)-AMC as substrate measured after 30 mins by fluorescence assay
RAW264.7 [2] = assay: cells; format: functional; conditions: Mus musculus, time 24 hrs
Description: Antiinflammatory activity in mouse RAW264.7 cells assessed as inhibition of LPS-induced NO release at 0.4 uM incubated for 24 hrs relative to control

[3] = target: T2, Tyrosine-protein kinase JAK3 (Homo sapiens, UniProt P52333); assay: Inhibition of JAK3 (unknown origin) using FAM-labelled peptide and ATP measured after 25 mins incubation relative to control
T2 sequence (P52333 whole entry): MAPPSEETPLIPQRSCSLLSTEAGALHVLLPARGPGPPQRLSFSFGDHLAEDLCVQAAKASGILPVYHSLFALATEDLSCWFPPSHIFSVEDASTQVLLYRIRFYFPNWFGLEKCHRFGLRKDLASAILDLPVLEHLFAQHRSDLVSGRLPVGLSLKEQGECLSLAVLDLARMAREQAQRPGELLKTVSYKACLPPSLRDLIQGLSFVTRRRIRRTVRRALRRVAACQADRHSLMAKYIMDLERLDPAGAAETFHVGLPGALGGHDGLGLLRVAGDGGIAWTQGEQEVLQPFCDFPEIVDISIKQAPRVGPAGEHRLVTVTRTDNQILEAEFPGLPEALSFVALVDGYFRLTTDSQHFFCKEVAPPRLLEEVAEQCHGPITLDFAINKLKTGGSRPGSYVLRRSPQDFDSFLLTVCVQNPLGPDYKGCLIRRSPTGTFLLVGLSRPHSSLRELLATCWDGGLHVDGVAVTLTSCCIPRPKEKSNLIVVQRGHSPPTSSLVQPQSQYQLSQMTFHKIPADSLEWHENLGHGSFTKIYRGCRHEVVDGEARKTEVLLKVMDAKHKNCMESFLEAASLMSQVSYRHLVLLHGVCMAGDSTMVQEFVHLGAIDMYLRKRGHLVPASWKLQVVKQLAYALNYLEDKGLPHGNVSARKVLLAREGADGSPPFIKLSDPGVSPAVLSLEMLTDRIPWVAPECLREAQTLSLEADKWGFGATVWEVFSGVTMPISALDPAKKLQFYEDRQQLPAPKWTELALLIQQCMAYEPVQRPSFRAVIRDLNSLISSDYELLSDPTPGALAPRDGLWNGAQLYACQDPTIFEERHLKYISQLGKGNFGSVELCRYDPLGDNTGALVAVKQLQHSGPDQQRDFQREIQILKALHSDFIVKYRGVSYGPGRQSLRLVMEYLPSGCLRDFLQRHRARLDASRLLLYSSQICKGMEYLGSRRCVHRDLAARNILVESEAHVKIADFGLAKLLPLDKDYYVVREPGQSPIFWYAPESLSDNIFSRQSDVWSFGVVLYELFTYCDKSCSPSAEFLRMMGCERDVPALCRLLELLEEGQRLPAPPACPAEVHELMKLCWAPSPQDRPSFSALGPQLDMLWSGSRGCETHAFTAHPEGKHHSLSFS

Mus musculus [4] = assay: Antipsoriatic activity against imiquimod-induced psoriasis BALB/c mouse model assessed as reduction in skin thickness at 0.25 % applied topically back of the mouse for 7 consecutive days by hematoxylin and eosin staining based histological analysis; format: functional, organism-based; conditions: route top
[5] = Acute toxicity in BALB/c mouse assessed as animal death; conditions: in vivo
Mus musculus [6] = assay: Antipsoriatic activity against imiquimod-induced psoriasis BALB/c mouse model assessed as reduction in epidermal thickness applied topically back of the mouse for 7 consecutive days by hematoxylin and eosin staining based histological analysis; format: functional, organism-based; conditions: dose 0.25-0.5 %, route top
[7] = target: Non-receptor tyrosine-protein kinase TYK2 (Homo sapiens, UniProt P29597); assay: Inhibition of TYK2 (unknown origin) using FAM-labelled peptide and ATP measured after 25 mins incubation relative to control
[8] = Metabolic stability of the compound in female ICR mouse liver microsomes assessed as half life at 1 uM measured up to 45 mins by LC-MS/MS analysis; format: ADME
RAW264.7 [9] = assay: Antiinflammatory activity in mouse RAW264.7 cells assessed as inhibition of LPS-induced IFN-gamma release at 0.9 uM incubated for 24 hrs by ELISA; format: functional, cell-based
RAW264.7 [10] = assay: Antiinflammatory activity in mouse RAW264.7 cells assessed as inhibition of LPS-induced TNFalpha release at 0.9 uM incubated for 24 hrs by ELISA; format: functional, cell-based
RAW264.7 [11] = assay: Antiinflammatory activity in mouse RAW264.7 cells assessed as inhibition of LPS-induced NO release at 0.10 uM incubated for 24 hrs relative to control; format: functional
[12] = target: T1, Tyrosine-protein kinase JAK2; assay: Inhibition of JAK2 (unknown origin) using FAM-labelled peptide and ATP measured after 25 mins incubation relative to control
[13] = target: Platelet-derived growth factor receptor alpha (Homo sapiens) (UniProt P16234); assay: Inhibition of PDGFRalpha (unknown origin) at 10 nM relative to control
RAW264.7 [14] = assay: Antiinflammatory activity in mouse RAW264.7 cells assessed as inhibition of LPS-induced NO release at 0.20 uM incubated for 24 hrs relative to control; format: functional
RAW264.7 [15] = assay: Antiinflammatory activity in mouse RAW264.7 cells assessed as inhibition of LPS-induced IL-12 release at 0.9 uM incubated for 24 hrs by ELISA; format: functional, cell-based
[16] = Metabolic stability of the compound in female ICR mouse liver microsomes assessed as clearance at 1 uM measured up to 45 mins by LC-MS/MS analysis; format: ADME; conditions: read-out: CLH
[17] = Acute toxicity in BALB/c mouse assessed as animal death at 7508 mg/kg; format: organism-based; conditions: in vivo
Mus musculus [18] = assay: Antipsoriatic activity against imiquimod-induced psoriasis BALB/c mouse model assessed as improvement in psoriatic symptom at 0.25 % applied topically back of the mouse for 7 consecutive days; format: functional, organism-based; conditions: route top
Mus musculus [19] = assay: Antipsoriatic activity against imiquimod-induced psoriasis BALB/c mouse model assessed as improvement in psoriatic symptom at 0.25 to 0.5 % applied topically back of the mouse for 7 consecutive days; format: functional, organism-based; conditions: dose 0.25-0.5 %, route top
[20] = Antiproliferative activity against HUVEC cells; conditions: human
Histone deacetylase 8 = target: T3, Histone deacetylase 8 (Homo sapiens, UniProt Q9BY41); assay: Inhibition of recombinant human HDAC8 using (Ac-Leu-Gly-Lys(Tfa)-AMC as substrate measured after 30 mins by fluorescence assay
T3 sequence (Q9BY41 whole entry): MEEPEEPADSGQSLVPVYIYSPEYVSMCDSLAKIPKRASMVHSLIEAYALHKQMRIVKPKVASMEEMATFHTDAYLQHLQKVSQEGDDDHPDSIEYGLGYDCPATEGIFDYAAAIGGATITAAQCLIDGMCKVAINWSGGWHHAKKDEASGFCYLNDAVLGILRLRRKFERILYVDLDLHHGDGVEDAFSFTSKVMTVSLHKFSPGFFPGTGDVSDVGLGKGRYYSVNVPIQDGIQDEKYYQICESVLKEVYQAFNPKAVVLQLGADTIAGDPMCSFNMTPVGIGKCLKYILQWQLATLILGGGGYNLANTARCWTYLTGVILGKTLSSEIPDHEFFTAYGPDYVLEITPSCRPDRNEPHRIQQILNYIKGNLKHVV

[21] = Antiproliferative activity against human LO2 cells; format: toxicity, cell-based, L02
Mus musculus [22] = assay: Antipsoriatic activity against imiquimod-induced psoriasis BALB/c mouse model assessed as reduction in skin thickness at 0.5 % applied topically back of the mouse for 7 consecutive days by hematoxylin and eosin staining based histological analysis; format: functional, organism-based; conditions: route top
Mus musculus [23] = assay: Antipsoriatic activity against imiquimod-induced psoriasis BALB/c mouse model assessed as improvement in psoriatic symptom at 0.5 % applied topically back of the mouse for 7 consecutive days; format: functional, organism-based; conditions: route top

T1 sequence (O60674 whole entry): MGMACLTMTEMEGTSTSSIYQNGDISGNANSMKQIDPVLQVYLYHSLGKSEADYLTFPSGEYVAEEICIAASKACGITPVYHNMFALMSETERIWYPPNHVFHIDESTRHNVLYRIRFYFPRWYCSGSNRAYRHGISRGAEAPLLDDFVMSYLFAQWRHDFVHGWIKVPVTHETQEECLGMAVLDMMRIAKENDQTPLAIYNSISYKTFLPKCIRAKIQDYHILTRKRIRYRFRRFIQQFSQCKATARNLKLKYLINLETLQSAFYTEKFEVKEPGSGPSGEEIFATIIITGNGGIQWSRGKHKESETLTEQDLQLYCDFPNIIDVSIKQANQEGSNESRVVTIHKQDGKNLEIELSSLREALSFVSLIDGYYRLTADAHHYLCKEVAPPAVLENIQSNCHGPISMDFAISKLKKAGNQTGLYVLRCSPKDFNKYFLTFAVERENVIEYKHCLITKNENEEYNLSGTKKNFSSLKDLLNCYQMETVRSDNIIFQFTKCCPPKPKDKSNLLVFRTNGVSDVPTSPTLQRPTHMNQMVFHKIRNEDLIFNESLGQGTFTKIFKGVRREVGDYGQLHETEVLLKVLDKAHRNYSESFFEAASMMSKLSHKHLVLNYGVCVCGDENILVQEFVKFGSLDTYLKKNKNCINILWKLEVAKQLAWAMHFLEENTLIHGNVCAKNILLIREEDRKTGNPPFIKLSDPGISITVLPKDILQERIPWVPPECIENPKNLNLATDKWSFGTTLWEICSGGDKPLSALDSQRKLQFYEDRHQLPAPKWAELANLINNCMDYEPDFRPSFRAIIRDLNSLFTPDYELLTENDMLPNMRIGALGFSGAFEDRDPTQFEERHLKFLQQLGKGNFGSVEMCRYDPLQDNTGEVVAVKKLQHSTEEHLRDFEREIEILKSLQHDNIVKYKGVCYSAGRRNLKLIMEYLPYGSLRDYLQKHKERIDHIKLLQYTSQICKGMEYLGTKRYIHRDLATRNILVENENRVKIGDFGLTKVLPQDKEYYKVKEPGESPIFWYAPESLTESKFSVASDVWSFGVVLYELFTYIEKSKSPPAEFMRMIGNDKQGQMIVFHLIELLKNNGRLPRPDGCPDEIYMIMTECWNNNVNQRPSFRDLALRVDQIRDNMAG
Chain of Histone deacetylase 1 (Q13547 whole entry): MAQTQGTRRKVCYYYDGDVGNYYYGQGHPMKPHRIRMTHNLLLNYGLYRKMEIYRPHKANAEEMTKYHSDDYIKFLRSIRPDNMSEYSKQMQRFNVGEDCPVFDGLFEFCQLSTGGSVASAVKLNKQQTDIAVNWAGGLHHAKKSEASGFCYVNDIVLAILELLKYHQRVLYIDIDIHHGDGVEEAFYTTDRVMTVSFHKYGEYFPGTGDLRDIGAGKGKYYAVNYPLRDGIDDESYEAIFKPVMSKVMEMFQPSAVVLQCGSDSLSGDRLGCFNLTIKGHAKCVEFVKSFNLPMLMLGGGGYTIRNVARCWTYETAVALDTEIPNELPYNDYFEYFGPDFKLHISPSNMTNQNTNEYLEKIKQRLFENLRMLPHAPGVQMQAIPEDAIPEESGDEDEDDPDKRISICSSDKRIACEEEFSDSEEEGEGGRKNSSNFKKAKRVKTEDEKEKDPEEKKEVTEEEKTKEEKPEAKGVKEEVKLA
Chain of Non-receptor tyrosine-protein kinase TYK2 (P29597 whole entry): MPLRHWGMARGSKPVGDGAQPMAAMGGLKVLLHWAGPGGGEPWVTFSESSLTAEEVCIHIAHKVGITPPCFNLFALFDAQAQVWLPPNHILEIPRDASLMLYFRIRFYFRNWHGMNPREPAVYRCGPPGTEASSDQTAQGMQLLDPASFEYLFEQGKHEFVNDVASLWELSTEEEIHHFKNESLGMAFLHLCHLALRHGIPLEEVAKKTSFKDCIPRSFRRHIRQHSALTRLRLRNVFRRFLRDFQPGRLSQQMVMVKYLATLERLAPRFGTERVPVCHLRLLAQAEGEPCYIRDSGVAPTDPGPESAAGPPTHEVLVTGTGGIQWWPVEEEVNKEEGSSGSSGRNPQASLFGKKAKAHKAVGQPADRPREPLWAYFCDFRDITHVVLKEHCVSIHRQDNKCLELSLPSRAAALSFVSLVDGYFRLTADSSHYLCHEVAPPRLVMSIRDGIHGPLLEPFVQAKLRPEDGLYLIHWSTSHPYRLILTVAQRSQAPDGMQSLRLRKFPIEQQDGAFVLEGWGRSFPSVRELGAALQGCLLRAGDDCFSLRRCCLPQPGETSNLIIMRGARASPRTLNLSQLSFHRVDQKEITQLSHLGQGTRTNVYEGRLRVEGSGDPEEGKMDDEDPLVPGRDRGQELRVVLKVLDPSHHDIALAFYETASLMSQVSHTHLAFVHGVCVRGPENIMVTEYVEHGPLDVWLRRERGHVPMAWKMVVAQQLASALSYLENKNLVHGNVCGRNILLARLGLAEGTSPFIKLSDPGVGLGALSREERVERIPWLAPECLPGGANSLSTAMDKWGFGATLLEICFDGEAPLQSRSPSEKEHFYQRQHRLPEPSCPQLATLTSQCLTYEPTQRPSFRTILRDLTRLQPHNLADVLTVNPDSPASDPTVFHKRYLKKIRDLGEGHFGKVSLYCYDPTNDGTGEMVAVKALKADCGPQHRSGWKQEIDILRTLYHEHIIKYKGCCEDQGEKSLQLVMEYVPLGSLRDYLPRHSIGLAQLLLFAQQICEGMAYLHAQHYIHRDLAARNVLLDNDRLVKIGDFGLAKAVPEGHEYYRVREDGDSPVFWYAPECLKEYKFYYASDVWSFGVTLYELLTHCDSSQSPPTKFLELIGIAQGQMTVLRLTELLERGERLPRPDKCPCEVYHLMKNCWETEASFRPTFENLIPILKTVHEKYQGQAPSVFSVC
Chain of Platelet-derived growth factor receptor alpha (Homo sapiens) (P16234 whole entry): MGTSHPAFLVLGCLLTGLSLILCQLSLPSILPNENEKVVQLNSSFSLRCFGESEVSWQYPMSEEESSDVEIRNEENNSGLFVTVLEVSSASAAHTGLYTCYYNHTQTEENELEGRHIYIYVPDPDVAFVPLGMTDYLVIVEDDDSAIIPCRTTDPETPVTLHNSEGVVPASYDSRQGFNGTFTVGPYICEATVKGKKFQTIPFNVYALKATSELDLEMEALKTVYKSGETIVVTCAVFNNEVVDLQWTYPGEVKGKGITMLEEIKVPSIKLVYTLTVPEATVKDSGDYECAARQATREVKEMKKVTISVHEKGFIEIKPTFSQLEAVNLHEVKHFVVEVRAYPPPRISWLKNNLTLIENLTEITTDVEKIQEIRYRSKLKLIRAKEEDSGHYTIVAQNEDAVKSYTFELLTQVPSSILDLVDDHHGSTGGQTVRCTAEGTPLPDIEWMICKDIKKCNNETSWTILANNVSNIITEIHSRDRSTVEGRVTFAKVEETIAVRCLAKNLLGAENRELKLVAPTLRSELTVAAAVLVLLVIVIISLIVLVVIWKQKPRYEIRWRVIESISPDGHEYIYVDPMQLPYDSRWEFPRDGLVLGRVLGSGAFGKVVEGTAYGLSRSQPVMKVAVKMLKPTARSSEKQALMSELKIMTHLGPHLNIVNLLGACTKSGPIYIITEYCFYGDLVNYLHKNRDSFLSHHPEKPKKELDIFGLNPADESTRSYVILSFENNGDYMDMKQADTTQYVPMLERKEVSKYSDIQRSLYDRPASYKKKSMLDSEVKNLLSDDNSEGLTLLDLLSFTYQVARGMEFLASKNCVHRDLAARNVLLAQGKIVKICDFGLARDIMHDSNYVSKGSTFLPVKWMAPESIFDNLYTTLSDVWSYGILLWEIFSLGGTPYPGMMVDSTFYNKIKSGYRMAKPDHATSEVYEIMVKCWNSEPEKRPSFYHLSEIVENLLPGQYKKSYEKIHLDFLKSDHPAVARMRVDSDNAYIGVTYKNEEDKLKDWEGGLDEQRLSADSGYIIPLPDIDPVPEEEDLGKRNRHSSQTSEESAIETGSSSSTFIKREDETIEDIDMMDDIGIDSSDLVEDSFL

Compound | inhibition [1] [%] | IC50 (HaCaT) [µM] | inhibition at 0.4 µM (RAW264.7 [2]) [%] | further results
CS(=O)(=O)Nc1ccc(-c2ccnc(Nc3ccc(-c4cn(CC(=O)Nc5ccc(C(=O)NO)cc5)nn4)cc3)n2)cc1 | 98 | > 50 | – | IC50 (Histone deacetylase 1): > 2 µM
CS(=O)(=O)Nc1ccc(-c2ccnc(Nc3ccc(-c4cn(CC(=O)NCCCC(=O)NO)nn4)cc3)n2)cc1 | 99 | > 50 | – | –
CS(=O)(=O)Nc1ccc(-c2ccnc(Nc3ccc(N4CCN(CC(=O)NCCCCCCCC(=O)NO)CC4)cc3)n2)cc1 | 100 | 10 | 71.3 | –
C[C@@H]1CCN(C(=O)CC#N)C[C@@H]1N(C)c1ncnc2[nH]ccc12 [TOFACITINIB] | – | > 50 | – | –
CS(=O)(=O)Nc1ccc(-c2ccnc(Nc3ccc(-c4cn(CC(=O)NCCC(=O)NO)nn4)cc3)n2)cc1 | 97 | > 50 | – | –
CS(=O)(=O)Nc1ccc(-c2ccnc(Nc3ccc(-c4cn(CC(=O)NO)nn4)cc3)n2)cc1 | 99 | > 50 | – | IC50 (Histone deacetylase 1): > 2 µM
CS(=O)(=O)Nc1ccc(-c2ccnc(Nc3ccc(-c4cn(CC(=O)NCCCCCCCC(=O)NO)nn4)cc3)n2)cc1 | – | > 50 | – | –
CS(=O)(=O)Nc1ccc(-c2ccnc(Nc3ccc(-c4cn(CC(=O)NCCCCCC(=O)NO)nn4)cc3)n2)cc1 | 98 | > 50 | – | –
CS(=O)(=O)Nc1ccc(-c2ccnc(Nc3ccc(N4CCN(CC(=O)Nc5ccc(C(=O)NO)cc5)CC4)cc3)n2)cc1 | 99 | 1.2 | 105 | IC50 [3]: 0.0056 µM; Activity (Mus musculus [4]): Active; LD50 [5]: > 7510 mg/kg; Activity (Mus musculus [6]): Dose-dependent-effect; IC50 [7]: 0.0026 µM; half-life at 1 µM [8]: 39.8 min; Activity (RAW264.7 [9]): Active; Activity (RAW264.7 [10]): Active; inhibition at 0.1 µM (RAW264.7 [11]): 105%; IC50 [12]: 0.00049 µM; inhibition [13]: > 50%; inhibition at 0.2 µM (RAW264.7 [14]): 105%; Activity (RAW264.7 [15]): Active; CLint scaled at 1 µM [16]: 138 mL/min/kg; Activity [17]: Non-toxic; Activity (Mus musculus [18]): Active; Compound Showed Better Activity Than 11G And Vorinostat/Momelotinib Control; Activity (Mus musculus [19]): Active; IC50 [20]: 10 µM
CS(=O)(=O)Nc1ccc(-c2ccnc(Nc3ccc(N4CCN(CC(=O)Nc5ccc(/C=C/C(=O)NO)cc5)CC4)cc3)n2)cc1 | 99 | – | 110 | IC50 [3]: 0.0079 µM; Activity (Mus musculus [4]): Active; IC50 (Histone deacetylase 8): > 1 µM; IC50 [21]: 5 µM; IC50 [7]: 0.0044 µM; half-life at 1 µM [8]: 56.3 min; Activity (RAW264.7 [9]): Active; Activity (RAW264.7 [10]): Active; inhibition at 0.1 µM (RAW264.7 [11]): 82.1%; IC50 [12]: 0.00072 µM; inhibition at 0.2 µM (RAW264.7 [14]): 105%; Activity (RAW264.7 [15]): Active; CLint scaled at 1 µM [16]: 97.5 mL/min/kg; Activity (Mus musculus [22]): Active; Activity (Mus musculus [23]): Active
CS(=O)(=O)Nc1ccc(-c2ccnc(Nc3ccc(-c4cn(CC(=O)NCCCCC(=O)NO)nn4)cc3)n2)cc1 | 98 | > 50 | – | –
CS(=O)(=O)Nc1ccc(-c2ccnc(Nc3ccc(-c4cn(CC(=O)NCCCCCCC(=O)NO)nn4)cc3)n2)cc1 | 99 | > 50 | – | –
CS(=O)(=O)Nc1ccc(-c2ccnc(Nc3ccc(N4CCN(CC(=O)NCCCCCCC(=O)NO)CC4)cc3)n2)cc1 | 99 | 5.3 | 73.9 | –
N#CCNC(=O)c1ccc(-c2ccnc(Nc3ccc(N4CCOCC4)cc3)n2)cc1 [MOMELOTINIB] | – | 13 | 94.8 | IC50 (Histone deacetylase 1): 0.04 µM; IC50 [20]: 7.3 µM

The next lines start with results.

inhibition [1] [%] | Compound | IC50 (HaCaT) [µM] | inhibition at 0.4 µM (RAW264.7 [2]) [%] | further results
100 | CS(=O)(=O)Nc1ccc(-c2ccnc(Nc3ccc(N4CCN(CC(=O)NCCCC(=O)NO)CC4)cc3)n2)cc1 | 17 | – | –
99 | CS(=O)(=O)Nc1ccc(-c2ccnc(Nc3ccc(N4CCN(CC(=O)NO)CC4)cc3)n2)cc1 | 10 | – | IC50 (Histone deacetylase 1): > 2 µM
99 | CS(=O)(=O)Nc1ccc(-c2ccnc(Nc3ccc(N4CCN(CC(=O)Nc5ccc(C(=O)NO)s5)CC4)cc3)n2)cc1 | 1.4 | 82.1 | –
98 | CS(=O)(=O)Nc1ccc(-c2ccnc(Nc3ccc(N4CCN(CC(=O)NCCCCC(=O)NO)CC4)cc3)n2)cc1 | 16 | – | –
99 | CS(=O)(=O)Nc1ccc(-c2ccnc(Nc3ccc(N4CCN(CC(=O)NCCC(=O)NO)CC4)cc3)n2)cc1 | > 50 | – | IC50 (Histone deacetylase 1): > 2 µM
99 | CS(=O)(=O)Nc1ccc(-c2ccnc(Nc3ccc(N4CCN(CC(=O)NCCCCCC(=O)NO)CC4)cc3)n2)cc1 | 9.6 | – | –
